Measurements taken from US20230416205A1, “COMPOUNDS, COMPOSITIONS, AND METHODS” (Denali Therapeutics Inc, priority 2020, published 2023).

Each compound was assayed on NLRP3 (assay: IL-1β secretion assay in PMA-differentiated, LPS/nigericin-stimulated THP-1 cells (384-well, ELISA read-out)). Details: Homo sapiens, THP-1, Table 4; IL-1β secretion, LPS/nigericin-stimulated THP-1 cells; read-out: IC50.
Format: cell-based, human
In short: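 THP-1 cells differentiated with PMA (5 ng/mL, 40 h), primed in serum-free medium with 25 ng/mL LPS for 2 h, treated with compounds 1 h (0.5% DMSO), then stimulated with nigericin for 2 h at 37 °C. Supernatant IL-1β measured by ELISA; responses normalized to LPS+5 μM nigericin and LPS-only controls.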
`O=C(CN1CC2(CC2)c2c(ccc3sccc23)C1=O)Nc1ncc(F)cn1` [Example 315, N-(5-fluoropyrimidin-2-yl)-2-(6-oxospiro[8H-thieno[3,2-f]isoquinoline-9,1′-cyclopropane]-7-yl)acetamide] showed an IC50 of 8920 nM. Compound `COCOc1cnc(NC(=O)CN2CC3(CC3)c3cc(Br)ccc3C2=O)nc1` [Example 316, 2-(6-bromo-1-oxospiro[3H-isoquinoline-4,1′-cyclopropane]-2-yl)-N-[5-(methoxymethoxy)pyrimidin-2-yl]acetamide] has an IC50 of 704 nM. In the case of `CC1(O)CC(NC(=O)CN2C[C@]3(C[C@H]3F)c3cc(Br)ccc3C2=O)C1` (stereo partly drawn) [Example 321, N-(cis-3-hydroxy-3-methylcyclobutyl)-2-[(2′R,4S)-6-bromo-2′-fluoro-1-oxospiro[3H-isoquinoline-4,1′-cyclopropane]-2-yl]acetamide], the IC50 is reported as 9 nM. `O=C(CN1CC2(CC2(F)F)c2c(ccc(C3CC3)c2F)C1=O)Nc1ncc(F)cn1` (centres unmarked) [Example 322, N-(5-fluoropyrimidin-2-yl)-2-[6-cyclopropyl-1′,1′,5-trifluoro-1-oxospiro[3H-isoquinoline-4,2′-cyclopropane]-2-yl]acetamide] showed an IC50 of 38 nM. Work on `O=C(CN1CC2(CC2)c2cc(Br)ccc2C1=O)Nc1ncc2c(n1)OCC2` [Example 329, 2-(6-bromo-1-oxospiro[3H-isoquinoline-4,1′-cyclopropane]-2-yl)-N-(5,6-dihydrofuro[2,3-d]pyrimidin-2-yl)acetamide] yielded an IC50 of 930 nM. `O=C(CN1CC2(CC2)c2cc(Br)ccc2C1=O)Nc1ncc2c(n1)COCC2` [Example 330, 2-(6-bromo-1-oxospiro[3H-isoquinoline-4,1′-cyclopropane]-2-yl)-N-(6,8-dihydro-5H-pyrano[3,4-d]pyrimidin-2-yl)acetamide] showed an IC50 of 1020 nM. Work on `O=C(CN1CC2(CC2)c2cc(Br)ccc2C1=O)Nc1ncc2c(n1)CCOC2` [Example 331, 2-(6-bromo-1-oxospiro[3H-isoquinoline-4,1′-cyclopropane]-2-yl)-N-(7,8-dihydro-5H-pyrano[4,3-d]pyrimidin-2-yl)acetamide] yielded an IC50 of 970 nM. `O=C(CN1CC2(CC2)c2cc(Br)ccc2C1=O)Nc1ncc(C2COC2)cn1` [Example 332, 2-(6-bromo-1-oxospiro[3H-isoquinoline-4,1′-cyclopropane]-2-yl)-N-[5-(oxetan-3-yl)pyrimidin-2-yl]acetamide] was tested, and the IC50 was 768 nM. `O=C(CN1CC2(CC2)c2cc(Br)ccc2C1=O)Nc1nc2ccnn2cc1F` [Example 333, 2-(6-bromo-1-oxospiro[3H-isoquinoline-4,1′-cyclopropane]-2-yl)-N-(6-fluoropyrazolo[1,5-a]pyrimidin-5-yl)acetamide] showed an IC50 of 895 nM. For `O=C(CN1CC2(CC2)c2cc(Br)ccc2C1=O)N[C@H]1C[C@@H](c2ccn[nH]2)C1` [Example 334, 2-(6-bromo-1-oxospiro[3H-isoquinoline-4,1′-cyclopropane]-2-yl)-N-[3-cis-(1H-pyrazol-5-yl)cyclobutyl]acetamide], the IC50 was 7510 nM. Work on `Cn1nc(NC(=O)CN2CC3(CC3)c3cc(Br)ccc3C2=O)ccc1=O` [Example 335, 2-(6-bromo-1-oxospiro[3H-isoquinoline-4,1′-cyclopropane]-2-yl)-N-(1-methyl-6-oxopyridazin-3-yl)acetamide] yielded an IC50 of 2080 nM. `O=C(CN1CC2(CC2)c2cc(C3COC3)ccc2C1=O)Nc1ncc(F)cn1` [Example 336, N-(5-fluoropyrimidin-2-yl)-2-[6-(oxetan-3-yl)-1-oxospiro[3H-isoquinoline-4,1′-cyclopropane]-2-yl]acetamide] gave an IC50 of 23200 nM. For `Cn1cc(NC(=O)CN2CC3(CC3)c3cc(Br)ccc3C2=O)ncc1=O` [Example 337, 2-(6-bromo-1-oxospiro[3H-isoquinoline-4,1′-cyclopropane]-2-yl)-N-(4-methyl-5-oxopyrazin-2-yl)acetamide], the IC50 was 7470 nM. Work on `COc1ccnc(NC(=O)CN2CC3(CC3)c3cc(Br)ccc3C2=O)n1` [Example 338, 2-(6-bromo-1-oxospiro[3H-isoquinoline-4,1′-cyclopropane]-2-yl)-N-(4-methoxypyrimidin-2-yl)acetamide] yielded an IC50 of 1580 nM. `CC(C(=O)Nc1ncc(F)cn1)N1CC2(CC2)c2cc(Br)ccc2C1=O` (centres unmarked) [Example 339, 2-(6-bromo-1-oxospiro[3H-isoquinoline-4,1′-cyclopropane]-2-yl)-N-(5-fluoropyrimidin-2-yl)propanamide] showed an IC50 of 8290 nM. Work on `CN(C(=O)CN1CC2(CC2)c2cc(Br)ccc2C1=O)C1CC(C)(O)C1` (stereo not drawn) [Example 342, 2-(6-bromo-1-oxospiro[3H-isoquinoline-4,1′-cyclopropane]-2-yl)-N-(3-cis-hydroxy-3-methylcyclobutyl)-N-methylacetamide] yielded an IC50 of 17100 nM. In the case of `O=C(CN1CC2(CC2)c2cc(Br)ccc2C1=O)Nc1nc2ccccn2c1F` [Example 343, 2-(6-bromo-1-oxospiro[3H-isoquinoline-4,1′-cyclopropane]-2-yl)-N-(3-fluoroimidazo[1,2-a]pyridin-2-yl)acetamide], the IC50 is reported as 7500 nM. For `CC1(C(F)(F)F)CN(CC(=O)Nc2ncc(F)cn2)C(=O)c2c(Br)cccc21` (centres unmarked) [Example 344, 2-[8-bromo-4-methyl-1-oxo-4-(trifluoromethyl)-3H-isoquinolin-2-yl]-N-(5-fluoropyrimidin-2-yl)acetamide], the IC50 was 27600 nM. `N#Cc1cc(F)c(NC(=O)CN2CC3(CC3)c3cc(Br)ccc3C2=O)cn1` [Example 345, 2-(6-bromo-1-oxospiro[3H-isoquinoline-4,1′-cyclopropane]-2-yl)-N-(6-cyano-4-fluoropyridin-3-yl)acetamide] showed an IC50 of 15100 nM. For `O=C(CN1CC2(CC2)c2cc(Br)ccc2C1=O)Nc1nccn2ncnc12` [Example 346, 2-(6-bromo-1-oxospiro[3H-isoquinoline-4,1′-cyclopropane]-2-yl)-N-([1,2,4]triazolo[1,5-a]pyrazin-8-yl)acetamide], the IC50 was 1570 nM. `CN1CCC(NC(=O)CN2CC3(CC3)c3cc(Br)ccc3C2=O)C1=O` (centres unmarked) [Example 347, 2-(6-bromo-1-oxospiro[3H-isoquinoline-4,1′-cyclopropane]-2-yl)-N-(1-methyl-2-oxopyrrolidin-3-yl)acetamide] was tested, and the IC50 was 21500 nM. For `Cn1ccnc(NC(=O)CN2CC3(CC3)c3cc(Br)ccc3C2=O)c1=O` [Example 348, 2-(6-bromo-1-oxospiro[3H-isoquinoline-4,1′-cyclopropane]-2-yl)-N-(4-methyl-3-oxopyrazin-2-yl)acetamide], the IC50 was 1320 nM. Work on `O=C(CN1CC2(CC2)c2cc(Br)ccc2C1=O)Nc1nccc2cccnc12` [Example 349, 2-(6-bromo-1-oxospiro[3H-isoquinoline-4,1′-cyclopropane]-2-yl)-N-(1,7-naphthyridin-8-yl)acetamide] yielded an IC50 of 4760 nM. Work on `O=C(CN1CC2(CC2)c2cc(Br)ccc2C1=O)Nc1nccn2cnnc12` [Example 350, 2-(6-bromo-1-oxospiro[3H-isoquinoline-4,1′-cyclopropane]-2-yl)-N-([1,2,4]triazolo[4,3-a]pyrazin-8-yl)acetamide] yielded an IC50 of 3590 nM.

Same assay, conditions: Table 4; IL-1β secretion, LPS/nigericin-stimulated THP-1 cells; read-out: IC50
With `COC1(C)CC(NC(=O)CN2CC3(CC3)c3cc(Br)ccc3C2=O)C1` (stereo not drawn) [Example 340, 2-(6-bromo-1-oxospiro[3H-isoquinoline-4,1′-cyclopropane]-2-yl)-N-(3-trans-methoxy-3-methylcyclobutyl)acetamide] the IC50 was 7870 nM. Compound `COC1(C)CC(NC(=O)CN2CC3(CC3)c3cc(Br)ccc3C2=O)C1` (stereo not drawn) [Example 341, 2-(6-bromo-1-oxospiro[3H-isoquinoline-4,1′-cyclopropane]-2-yl)-N-(3-cis-methoxy-3-methylcyclobutyl)acetamide] has an IC50 of 2410 nM.
